Consider three compounds from ChEMBL document CHEMBL4840355, “Antitumor and toxicity study of mitochondria-targeted triptolide derivatives using triphenylphosphine (TPP+) as a carrier” (Bioorg Med Chem, 2021).

Molecules are shown by their SMILES. Active and inactive are the calls of the source. No cut-off for these calls is given here. Bounds are passed on as bounds.

For series [1], the system named is PANC-1. Nature of the series: Cytotoxicity against human PANC-1 cells assessed as inhibition of cell proliferation measured after 48 hrs by MTT assay. In kind it is functional, cell-based. The settings on record: PANC-1, 48 h. (In general: Tetrazolium assays rely on reduction of a dye to a coloured formazan, in cell work by metabolically active cells.)
Series [2] concerns HepG2. Nature of the series: Cytotoxicity against human HepG2 cells assessed as inhibition of cell proliferation measured after 48 hrs by MTT assay. In kind it is functional, cell-based. Conditions: HepG2, 48 h.
Series [3] relates to L02. Nature of the series: Cytotoxicity against human HL7702 cells assessed as inhibition of cell proliferation measured after 48 hrs by MTT assay. Conditions: L02, 48 h. In kind it is cell-based.
Series [4] has as its system PC-3. Nature of the series: Cytotoxicity against human PC-3 cells assessed as inhibition of cell proliferation measured after 48 hrs by MTT assay. In kind it is functional, cell-based. Conditions: PC-3, 48 h.
The subject of series [5] is HepG2. Nature of the series: Antitumor activity against human HepG2 cells xenografted in zebra fish AB assessed as tumor growth inhibition at 1 uM measured after 48 hrs by fluorescence microscopic analysis. In kind it is functional, cell-based.
Series [6] concerns NCI-H1975. Nature of the series: Cytotoxicity against human NCI-H1975 cells assessed as inhibition of cell proliferation measured after 48 hrs by MTT assay. In kind it is functional, cell-based. The settings on record: NCI-H1975, 48 h.
For series [7], the system named is HeLa. The series can be described thus: Cytotoxicity against human HeLa cells assessed as inhibition of cell proliferation measured after 48 hrs by MTT assay. In kind it is functional, cell-based.
Series [8] in a line: Cytotoxicity against human A549/DDP cells assessed as inhibition of cell proliferation measured after 48 hrs by MTT assay. In kind it is functional, cell-based.
Series [9] concerns NCI-H1299. The series can be described thus: Cytotoxicity against human NCI-H1299 cells assessed as inhibition of cell proliferation measured after 48 hrs by MTT assay. In kind it is functional, cell-based. Conditions: NCI-H1299, 48 h.
A short description of series [10]: Cytotoxicity against human HBE cells assessed as inhibition of cell proliferation measured after 48 hrs by MTT assay. In kind it is cell-based.
Series [11] is described as follows: Potency index, ratio of TP IC50 to test compound IC50 for cytotoxicity against human A549/DDP cells. In kind it is functional.
Series [12] deals with HeLa. The series can be described thus: Potency index, ratio of TP IC50 to test compound IC50 for cytotoxicity against human HeLa cells. In kind it is functional.
The subject of series [13] is NCI-H1299. The series can be described thus: Potency index, ratio of TP IC50 to test compound IC50 for cytotoxicity against human NCI-H1299 cells. In kind it is functional.
In series [14] the test system is MCF7. Nature of the series: Cytotoxicity against human MCF7 cells assessed as inhibition of cell proliferation measured after 48 hrs by MTT assay. In kind it is functional, cell-based. Conditions: MCF7, 48 h.
The test system of series [15] is PC-3. Nature of the series: Potency index, ratio of TP IC50 to test compound IC50 for cytotoxicity against human PC-3 cells. In kind it is functional.
Series [16] has as its system NCI-H1975. Nature of the series: Potency index, ratio of TP IC50 to test compound IC50 for cytotoxicity against human NCI-H1975 cells. In kind it is functional.
Series [17] concerns MCF7. Nature of the series: Potency index, ratio of TP IC50 to test compound IC50 for cytotoxicity against human MCF7 cells. In kind it is functional.
Series [18] has as its system HepG2. Nature of the series: Potency index, ratio of TP IC50 to test compound IC50 for cytotoxicity against human HepG2 cells. In kind it is functional.
For series [19], the system named is PANC-1. Nature of the series: Potency index, ratio of TP IC50 to test compound IC50 for cytotoxicity against human PANC-1 cells. In kind it is functional.
Series [20] in a line: Toxicity in 12-month old zebrafish assessed as mortality at 1.6 uM. Also noted: species or system Danio rerio. Conditions: in vivo.
Series [21] in a line: Toxicity in zebrafish AB assessed as increase in embryo malformation rate at 0.5 to 2 uM measured at 72 hrs postfertilization. The settings on record: in vivo, dose 0.5-2 µM. Also noted: species or system Danio rerio.
A short description of series [22]: Toxicity in zebrafish AB assessed as decrease in body length at 0.25 to 2 uM measured at 72 hrs postfertilization. Also noted: species or system Danio rerio. Conditions: in vivo, dose 0.25-2 µM.
Series [23] concerns HepG2. The series can be described thus: Antitumor activity against human HepG2 cells xenografted in zebra fish AB assessed as tumor growth inhibition at 0.5 to 1 uM measured after 48 hrs by fluorescence microscopic analysis. The settings on record: dose 0.5-1 µM. In kind it is functional, cell-based. A general note: Xenograft models place foreign cells or tissue in a host animal.

The nature of series [24]: Toxicity in zebrafish AB assessed as mortality at 0.05 to 2 uM measured at 72 hrs postfertilization. Details: species or system Danio rerio. The settings on record: in vivo, dose 0.05-2 µM.
Series [25] in a line: Toxicity in zebrafish AB assessed as decrease in hatching rate at 0.25 to 2 uM measured at 72 hrs postfertilization. Details: species or system Danio rerio. The settings on record: in vivo, dose 0.25-2 µM.
A short description of series [26]: Hepatotoxicity in transgenic zebrafish Tg(1-fabp:EGFP) assessed as liver damage by measuring decrease in fluorescence intensity and area at 0.5 uM measured after 96 hrs. In kind it is toxicity, tissue-based, Danio rerio. Conditions: in vivo.
Series [27] can be described thus: Toxicity in zebrafish AB assessed as pericardial edema at 1 uM. Details: species or system Danio rerio. Conditions: in vivo.

With `COc1cccc2c1C(=O)c1c(O)c3c(c(O)c1C2=O)C[C@@](O)(C(=O)CO)C[C@@H]3O[C@H]1C[C@H](N)[C@H](O)[C@H](C)O1` [DOXORUBICIN], the IC50 (commonly the point on the concentration scale where inhibition reaches its midpoint) amounted to 3100 nM in [1]; 1970 nM in series [2]; 351 nM in series [3]; 539 nM in [4]; 2680 nM in series [6]; 2090 nM in series [7]. For the same compound, the half-inhibitory concentration (IC50) in series [8] came out at 10800 nM; in [9] it was 1300 nM; in [10] it was 1260 nM. Besides, the result in [5] was Active.
Turning to `CC(C)[C@]12O[C@H]1[C@@H]1O[C@]13[C@]1(O[C@H]1C[C@H]1C4=C(CC[C@@]13C)C(=O)OC4)[C@@H]2OC(=O)CCCC[P+](c1ccccc1)(c1ccccc1)c1ccccc1.[Br-]`, the “Ratio IC50” value in series [11], in [12], in [13], in [15], in [16] and in [17] was 100 throughout. Moreover, the “Ratio IC50” value in [18] and in series [19] was 100 each time. Moreover, the IC50 came to 13400 nM in series [1]; 24200 nM in [2]; 17400 nM in [3]; 26400 nM in series [4]; 1380 nM in [6]; 22900 nM in series [7]. Moreover, the 50% inhibitory concentration (IC50) in series [8] was above 10000 nM; in series [14] it was 18700 nM; in series [9], 2240 nM; in series [10] it was 6270 nM.
With `CC(C)[C@]12O[C@H]1[C@@H]1O[C@]13[C@]1(O[C@H]1C[C@H]1C4=C(CC[C@@]13C)C(=O)OC4)[C@@H]2O` [TRIPTOLIDE], the mortality (usually the share of the test organisms that died) at 1.6 µM in series [20] was determined as 100%. The Activity result is “Toxic” in series [21]; “Toxic” in series [22]; “Non-Toxic” in series [24]; “Toxic” in series [25]; “Toxic” in series [26]; “Toxic” in [27]. In addition, the IC50 in series [1] turned out to be 56 nM; in series [2], 33 nM; in series [3] it was 21 nM; in series [4], 21 nM; in series [6], 19 nM; in [7], 43 nM. The IC50 was above 10000 nM in series [8], 22 nM in [14], 49 nM in series [9] and 30 nM in [10]. For the same compound, the outcome in series [23] and in series [5] was Active.
